What was measured:
murine Hrnr = experiment: In vitro siRNA-mediated hornerin knockdown in COCA cells (immunoblot); type: cell-based; conditions: COCA mouse keratinocytes, densitometry
Description: (§1) For in vitro siRNA-mediated hornerin knockdown, COCA cells and human keratinocytes were plated at a density of 0.1×10^6 cells/well in a six-well cluster plate. The cells were treated the following day with Scr siRNA or Hrnr siRNA (Invitrogen; siRNA sequences identical to those utilized in tumor studies) following an established protocol (see Rachow et al., 2013). Briefly, 100 μL of 10 μM siRNA and 12.5 μL of Lipofectamine 2000 (LF2000; Invitrogen) were added to separate 625 μL OptiMEM (Thermo Fisher Scientific) aliquots. After 5 minutes at RT, the solutions were mixed and incubated for an additional 30 minutes, upon which 5 ml of keratinocyte media were added. The cells were incubated overnight in 3 ml of the siRNA/LF2000/media mixture, replenished the following morning with media containing 2 mM CaCl2) to induce differentiation, and lysed in RIPA buffer 8 hours post-media change. Lysate preparations were subjected to immunoblot using the primary antibodies anti-human hornerin (Abcam; 1:1000), anti-mouse hornerin (Santa Cruz Biotechnology, Dallas, TX, USA, sc164605; 1:200), or anti-beta actin (Cell Signaling; 1:4000), and respective secondary antibodies anti-goat HRP (R&D Systems; 1:10,000), and anti-mouse HRP (R&D Systems; 1:10,000). Uncropped hornerin immunoblots are represented in FIGS. 6A and 6B.

human hornerin = experiment: In vitro siRNA treatment of human keratinocytes (immunoblot); type: cell-based
Description: as §1

L3.6pl tumors = experiment: Ki67 and cleaved caspase 3 immunofluorescence in tumor sections; type: in vivo, mouse; conditions: day 15 tumor sections
Description: Vessel parameters were measured using RAVE software (Seaman et al., 2011). For detection of proliferation and apoptosis, the sections were incubated with the primary antibodies anti-Ki67 (Abcam, ab15580; 1:200) or anti-cleaved caspase 3 (Cell Signaling, 9661; 1:200), respectively, overnight at 4° C. followed by incubation with anti-rabbit AF594 (Abcam, 150080; 1:200).

Substance: 5′-GCAUGGAUCUUGUUGCGGUTT-3′ [Hrnr siRNA]
- reduction in hornerin expression (knockdown) relative to Scr siRNA (murine Hrnr): 60%
- loss of hornerin relative to Scr siRNA (human hornerin; similar conditions): ~10%
- hornerin expression level relative to Scr siRNA (human hornerin; similar siRNA conditions): ~90%
- cleaved caspase 3 levels in tumors relative to control (L3.6pl tumors): two-fold increase
